The source made the active and inactive calls. The rule behind the calls is not given here.
Key:
[1] = Toxicity in BALB/c mouse assessed as increase in Timp1 expression at 100 to 1000 ug measured after 16 hrs in presence of hemagglutinin; conditions: in vivo, dose 100-1000 µg
[2] = Toxicity in C57BL/6 mouse assessed as effect on ALP level in serum at 500 ug measured after 1 day after immunization; conditions: 24 h, dose 500 µg
[3] = Toxicity in BALB/c mouse assessed as effect on body weight loss at 1000 ug measured after 16 hrs in presence of hemagglutinin; conditions: in vivo, dose 1000 µg
RAW264.7 [4] = experiment: Induction of apoptosis in mouse RAW264.7 cells assessed as live cells at 8 uM by flow cytometry analysis (reference value: 75.4 %); type: functional
Mus musculus [5] = species on record: Mus musculus; experiment: Induction of immune response in OVAp immunized C57BL/6 mouse assessed as increase in number of antigen-specific IFN-gamma+ CD44+ CD8+ T cells in spleen at 100 ug measured after 35 days by flow cytometry analysis; type: functional, organism-based; conditions: T-cell, dose 100.0 µg, time 35.0 day
RAW264.7 [6] = experiment: Induction of apoptosis in mouse RAW264.7 cells assessed as apoptotic cells at 8 uM by flow cytometry analysis (reference value: 3.26 %); type: functional
[7] = Toxicity in BALB/c mouse assessed as reduction in leukocyte count measured after 16 hrs; conditions: dose 100-1000 µg
B16-OVA melanoma cell [8] = experiment: Antitumor activity against mouse B16-OVA melanoma cell xenografted in C57BL/6 mouse assessed as increase in number of memory T cells in spleen at 500 ug, sc in presence of OVAp by flow cytometry analysis; type: functional, organism-based; conditions: dose 500.0 µg
BMDC [9] = experiment: Induction of immune response in TLR7 knockout mouse BMDC cells assessed as increase in IFN-beta production at 10 to 100 uM incubated for 24 hrs by ELISA method; type: functional, cell-based; conditions: dose 10-100 µM
RAW264.7 [10] = experiment: Induction of apoptosis in mouse RAW264.7 cells assessed as necrotic cells at 10 uM by flow cytometry analysis (reference value: 20.6 %); type: functional
RAW264.7 [11] = experiment: Induction of apoptosis in mouse RAW264.7 cells assessed as necrotic cells at 4 uM by flow cytometry analysis (reference value: 20.6 %); type: functional
RAW264.7 [12] = experiment: Upregulation of CD40 expression in mouse RAW264.7 cells measured after 24 hrs by flow cytometry analysis; type: functional, cell-based; conditions: dose 10-50 µM
RAW264.7 [13] = experiment: Induction of apoptosis in mouse RAW264.7 cells assessed as apoptotic cells at 4 uM by flow cytometry analysis (reference value: 3.26 %); type: functional
BMDC [14] = experiment: Induction of immune response in TLR7 knockout mouse BMDC cells assessed as increase in IL-6 production at 10 to 100 uM incubated for 24 hrs by ELISA method; type: functional, cell-based; conditions: dose 10-100 µM
BMDC [15] = experiment: Induction of IL-6 production in mouse BMDC cells at 100 uM; type: functional, cell-based
[16] = Toxicity in C57BL/6 mouse assessed as effect on spleen at 500 ug, sc by H and E staining based analysis; type: organism-based; conditions: in vivo, dose 500 µg
RAW264.7 [17] = experiment: Induction of apoptosis in mouse RAW264.7 cells assessed as necrotic cells at 16 uM by flow cytometry analysis (reference value: 20.6 %); type: functional
RAW264.7 [18] = experiment: Induction of apoptosis in mouse RAW264.7 cells assessed as live cells at 12 uM by flow cytometry analysis (reference value: 75.4 %); type: functional
Mus musculus [19] = species on record: Mus musculus; experiment: Induction of immune response in C57BL/6 mouse assessed as increase in total CD8+T cells percentage in spleen at 100 ug measured after 35 days by flow cytometry analysis; type: functional, organism-based; conditions: dose 100.0 µg, time 35.0 day
[20] = Toxicity in C57BL/6 mouse assessed as effect on liver at 500 ug, sc by H and E staining based analysis; type: organism-based; conditions: in vivo, dose 500 µg
B16-OVA melanoma cell [21] = experiment: Antitumor activity against mouse B16-OVA melanoma cell xenografted in C57BL/6 mouse assessed as at 500 ug administered 5 times for every 2 days from day 9 to 17; type: functional, cell-based; conditions: dose 500.0 µg, time 9.0 day
BMDC [22] = experiment: Induction of immune response in TLR7 knockout mouse BMDC cells assessed as increase in CXCL10 production at 10 to 100 uM incubated for 24 hrs by ELISA method; type: functional, cell-based; conditions: dose 10-100 µM
RAW264.7 [23] = experiment: Induction of apoptosis in mouse RAW264.7 cells assessed as necrotic cells at 8 uM by flow cytometry analysis (reference value: 20.6 %); type: functional
B16-OVA melanoma cell [24] = experiment: Antitumor activity against mouse B16-OVA melanoma cell xenografted in C57BL/6 mouse assessed as effect on central memory T cell in spleen at 500 ug, sc in presence of OVAp by flow cytometry analysis; type: functional, organism-based; conditions: dose 500.0 µg
[25] = Toxicity in C57BL/6 mouse assessed as effect on body weight at 500 ug measured from day 9 to 21; conditions: in vivo, 312 h, dose 500 µg, time 13 day
[26] = Toxicity in C57BL/6 mouse assessed as effect on ALB level in serum at 500 ug measured after 1 day after immunization; conditions: 24 h, dose 500 µg
B16-OVA melanoma cell [27] = experiment: Antitumor activity against mouse B16-OVA melanoma cell xenografted in C57BL/6 mouse assessed as increase in CD8+T cell level in spleen at 500 ug measured after 24 hrs in presence of OVAp by flow cytometry analysis; type: functional, cell-based; conditions: dose 500.0 µg
[28] = Toxicity in C57BL/6 mouse assessed as effect on glucose level in serum at 500 ug measured after 1 day after immunization; conditions: 24 h, dose 500 µg
RAW264.7 [29] = experiment: Upregulation of CD86 expression in mouse RAW264.7 cells measured after 24 hrs by flow cytometry analysis; type: functional, cell-based; conditions: dose 10-50 µM
RAW264.7 [30] = experiment: Induction of apoptosis in mouse RAW264.7 cells assessed as live cells at 16 uM by flow cytometry analysis (reference value: 75.4 %); type: functional
BMDC [31] = experiment: Upregulation of CD86 expression in mouse BMDC cells at 5 to 50 uM measured after 24 hrs in presence of OVAp by flow cytometry analysis; type: functional, cell-based; conditions: dose 5-50 µM
[32] = Upregulation of CD86 expression in mouse RAW264.7 cells assessed as fold increase in fluorescence intensity at 20 uM measured after 24 hrs by flow cytometry analysis; type: functional
RAW264.7 [33] = experiment: Induction of apoptosis in mouse RAW264.7 cells assessed as live cells at 10 uM by flow cytometry analysis (reference value: 75.4 %); type: functional
Mus musculus [34] = experiment: Immuno-adjuvant activity in SV-immunized C57BL/6 mouse assessed as increase in HA-specific IgG1 titer level at 100 ug, sc administered immediately and on day 0, 14 and measured at day 21 by ELISA; type: functional, organism-based; conditions: dose 100.0 µg, time 21.0 day
Mus musculus [35] = species on record: Mus musculus; experiment: Induction of immune response in OVAp immunized C57BL/6 mouse assessed as fold increase in IFN-gamma+ cytotoxic T lymphocytes at 100 ug measured after 35 days by flow cytometry analysis; type: functional, T-cell; conditions: dose 100 µg; time 35 day
[36] = Toxicity in C57BL/6 mouse assessed as effect on AST level in serum at 500 ug measured after 1 day after immunization; conditions: 24 h, dose 500 µg
[37] = Toxicity in C57BL/6 mouse assessed as effect on urea level in serum at 500 ug measured after 1 day after immunization; conditions: 24 h, dose 500 µg

For C[C@H](CCC(=O)NCCCCCCCNC(=O)CC[C@@H](C)[C@H]1CC[C@H]2[C@@H]3CC[C@@H]4C[C@H](O)CC[C@]4(C)[C@H]3C[C@H](O)[C@]12C)[C@H]1CC[C@H]2[C@@H]3CC[C@@H]4C[C@H](O)CC[C@]4(C)[C@H]3C[C@H](O)[C@]12C, the Activity [1] was “Non-Toxic”, the Activity [2] was “Non-Toxic” and the Activity [3] was “Non-Toxic”. The Activity (RAW264.7 [4]) was 60.7%, the Activity (Mus musculus [5]) was “Active” and the Activity (RAW264.7 [6]) was 1.47%. The Activity [7] was “Non-Toxic”, the Activity (B16-OVA melanoma cell [8]) was “Active” and the Activity (BMDC [9]) was “inactive”. The Activity (RAW264.7 [10]) was 28.6%, the Activity (RAW264.7 [11]) was 19% and the Activity (RAW264.7 [12]) was “Dose-Dependent Effect”. For the same compound, the Activity (RAW264.7 [13]) was 2.1%, the Activity (BMDC [14]) was “inactive” and the Activity (BMDC [15]) was “Active”. The Activity [16] was “Non-Toxic”, the Activity (RAW264.7 [17]) was 34% and the Activity (RAW264.7 [18]) was 66.8%. The Activity (Mus musculus [19]) was “Active”, the Activity [20] was “Non-Toxic” and the Activity (B16-OVA melanoma cell [21]) was “inactive”. The Activity (BMDC [22]) was “inactive”, the Activity (RAW264.7 [23]) was 36.1% and the Activity (B16-OVA melanoma cell [24]) was “Active”. For the same compound, the Activity [25] was “Non-Toxic”, the Activity [26] was “Non-Toxic” and the Activity (B16-OVA melanoma cell [27]) was “Active”. The Activity [28] was “Non-Toxic”, the Activity (RAW264.7 [29]) was “Dose-Dependent Effect” and the Activity (RAW264.7 [30]) was 63.4%. The Activity (BMDC [31]) was “Active”, the “fold change (FC)” value [32] was 2 and the Activity (RAW264.7 [33]) was 67.2%. For the same compound, the Activity (Mus musculus [34]) was “Active”, the “fold change (FC)” value (Mus musculus [35]) was 7.6 and the Activity [36] was “Non-Toxic”. The Activity [37] was “Non-Toxic”.
